What was measured:
[1] = oral administration; cited from earlier work
[2] = test system: MC38 murine colon carcinoma cells; assay: Example 1: tumor growth delay, MC38 murine colon carcinoma in C57BL/6 mice; assay type: in vivo, mouse; conditions: for Median TTE: endpoint 1000 mm^3 or Day 47, n=10; for % TGD: vs vehicle
Method: In the present example, HBI-8000 was tested as monotherapy and in combination with anti-PD-1 at 5 mg/kg. The experiment included a vehicle-treated group, and a PD-1 inhibitor antibody monotherapy group, which served as the control groups for analysis of efficacy. Tumors were measured twice per week until the study was ended on Day 47. Each animal was euthanized when its tumor attained the endpoint tumor volume of 1000 mm^3 or on the final day of the study, whichever came first, and the time to endpoint (TTE) for each mouse was calculated. Treatment response was determined from an analysis of percent tumor growth delay (% TGD), defined as the percent increase in the median time to endpoint (TTE) for treated versus control mice; and by log rank significance of differences in survival among groups and regression responses.
Mice: Female C57BL/6 mice (Charles River Laboratories) were eight weeks old, with a body weight (BW) range of 15.4 to 22.0 grams on Day 1 of the study. The animals were fed ad libitum water (reverse osmosis, 1 ppm Cl), and NIH 31 Modified and Irradiated Lab Diet® consisting of 18.0% crude protein, 5.0% crude fat, and 5.0% crude fiber. The mice were housed on irradiated Enrich-o'Cobs™ Laboratory Animal Bedding in static microisolators on a 12-hour light cycle at 20-22° C. (68-72° F.) and 40-60% humidity.
Tumor Cells: MC38 murine colon carcinoma cells were maintained in Dulbecco's Modified Eagle Medium (DMEM) supplemented with 10% fetal bovine serum and 2 mM glutamine, 100 units/mL penicillin G sodium, […] streptomycin sulfate, and 25 μg/mL gentamicin. Cell cultures were maintained in tissue culture flasks in a humidified incubator at 37° C., in an atmosphere of 5% CO2 and 95% air.
Tumor Implantation: Cells were harvested during exponential growth, and resuspended in cold DMEM. Each mouse was inoculated subcutaneously in the right flank with 1×10^6 cells (0.1 mL of cell suspension). Tumors were calipered in two dimensions to monitor growth as their mean volume approached the desired 100-150 mm^3 range. Tumor burden was calculated using the formula:
[formula] where w=width and l=length, in mm, of the tumor. Tumor weight may be estimated with the assumption that 1 mg is equivalent to 1 mm^3 of tumor volume. Fourteen days after tumor implantation, which was designated as Day 1 of the study, animals with individual tumor volumes from 75 to 221 mm^3 were sorted into eleven groups (n=10/group) with group mean tumor volume of 130-133 mm^3. […]
Tumor Growth Delay: Tumors were measured using calipers twice per week, and each animal was euthanized when its tumor reached a volume of 1000 mm^3 or at the end of the study (D47), whichever came first. […] The time to endpoint (TTE) for analysis was calculated for each mouse by the following equation: […]

HDAC 10 = molecular target: T1, HDAC 10 (Homo sapiens, UniProt Q969S8); conditions: reported by Ning et al.; cited from earlier work
T1 sequence (Q969S8 1-669): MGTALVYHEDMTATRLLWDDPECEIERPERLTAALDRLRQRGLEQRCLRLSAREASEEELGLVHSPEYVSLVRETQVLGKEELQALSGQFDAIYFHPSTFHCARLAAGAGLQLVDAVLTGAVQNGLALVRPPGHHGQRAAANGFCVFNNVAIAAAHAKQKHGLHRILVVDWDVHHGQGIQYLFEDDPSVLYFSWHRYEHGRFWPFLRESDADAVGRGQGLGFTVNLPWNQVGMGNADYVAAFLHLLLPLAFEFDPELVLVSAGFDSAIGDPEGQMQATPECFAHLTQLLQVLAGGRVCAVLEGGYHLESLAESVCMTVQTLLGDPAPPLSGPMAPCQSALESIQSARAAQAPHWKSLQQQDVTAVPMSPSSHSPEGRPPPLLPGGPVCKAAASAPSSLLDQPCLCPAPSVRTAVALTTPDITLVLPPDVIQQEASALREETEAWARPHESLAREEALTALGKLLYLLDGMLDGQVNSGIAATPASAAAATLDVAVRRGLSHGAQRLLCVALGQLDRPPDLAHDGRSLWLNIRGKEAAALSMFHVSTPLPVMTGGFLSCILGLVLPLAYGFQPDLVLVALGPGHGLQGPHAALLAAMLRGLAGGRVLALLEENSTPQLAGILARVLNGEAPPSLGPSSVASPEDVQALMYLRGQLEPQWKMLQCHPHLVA

HDAC 8 = molecular target: T2, HDAC 8 (Homo sapiens, UniProt Q9BY41); conditions: cited from earlier work
T2 sequence (Q9BY41 1-377): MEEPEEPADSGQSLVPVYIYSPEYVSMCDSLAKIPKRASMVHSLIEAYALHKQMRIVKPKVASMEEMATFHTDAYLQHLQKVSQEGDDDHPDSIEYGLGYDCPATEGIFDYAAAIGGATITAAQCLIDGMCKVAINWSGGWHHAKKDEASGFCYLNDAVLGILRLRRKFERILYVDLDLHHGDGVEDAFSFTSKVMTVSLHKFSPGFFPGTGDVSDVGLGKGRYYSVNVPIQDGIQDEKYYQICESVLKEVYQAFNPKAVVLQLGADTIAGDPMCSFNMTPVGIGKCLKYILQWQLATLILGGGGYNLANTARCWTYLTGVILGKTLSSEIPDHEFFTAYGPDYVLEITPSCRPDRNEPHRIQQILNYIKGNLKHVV

[3] = HBI-8000 20 mg/kg p.o. qd×21, alone or plus anti-PD-1 5 mg/kg i.p. biwk×3
[4] = HBI-8000 50 mg/kg p.o. qd×21, alone or plus anti-PD-1 5 mg/kg i.p. biwk×3

## Nc1cc(F)ccc1NC(=O)c1ccc(CNC(=O)/C=C/c2cccnc2)cc1 [HBI-8000, N-(2-amino-4-fluorophenyl)-4-[[[(2E)-1-oxo-3-(3-pyridinyl)-2-propen-1-yl]amino]methyl]benz amide]
[1]
  t1/2: about 17 hours
[2]; [3]
  Median TTE: 18.9 days
  % TGD: −8%
[2]; [4]
  Median TTE: 22.8 days
  % TGD: 11%
HDAC 10
  activity at HDAC 10 compared with Entinostat: more active than Entinostat
  inhibition of HDAC 10: low nanomolar concentrations
HDAC 8
  activity at HDAC 8: has activity
HDAC 8; reported by Ning et al.
  activity at HDAC 8 compared with Entinostat: more active than Entinostat
